From patent publication US4673747A, “Aminoalkylphenoxy derivatives” (Ikeda Mohando Co., Ltd., priority 1984, dated 1987) come the findings set out here.

The subject of experiment [1] is Gastric acid secretion induced by histamine. The experiment in a line: Inhibition effect on gastric acid secretion induced by histamine in pylorus ligated rat (subcutaneous). The conditions noted are these: histamine 3 mg/kg SC, average of five runs, * p<0.05, ** p<0.01 vs control group, read-out: Secretion of Gastric Acid in Rat, Inhibition Rate (%); for inhibition in vivo at 0.2 mg/kg: 0.2 mg/kg SC. It is filed as in vivo, rat (male Wistar). Here is the method: A male Wistar rat having a body weight of about 160 g and which had not fed for 24 hours was anesthetized by an intraperitonea dose of 1.2 g/kg of uretane. After ligating of pylorus and esophagus, the gaster anterior was incised and fitted with a double polyethylene cannula. The wall of the stomach was rinsed with 5 ml of saline at 30 minute intervals, and the quantities of gastric acid contained in each rinsing solution were measured by titration.
The basal acid secretion was initially measured three times, and then 0.2 mg/kg or 0.5 mg/kg of each of the compounds of this invention was administered subcutaneously and 3 mg/kg of histamine was administered subcutaneously after the lapse of an additional 30 minutes.
The quantity of gastric acid secreated after the operation was measured continuously for 3 hours. Within that measurement interval, three time points at which the increase in acid secretion reached a maximum level were selected, and the average quantity of gastric acid secreted at those time points was taken as the increase in acid secretion, which was compared with the increase in acid secretion of the control group to calculate the percent inhibition for secretion of gastric acid. [formula] (The result was shown as the average value of five runs.)

The next experiment addresses T1, Histamine H2-Receptor (Cavia porcellus, UniProt P47747).
T1 construct: from tissue; host or cells: isolated atrium of male Hartley guinea pig
On the set-up: species or system guinea pig (male Hartley). The conditions noted are these: isolated guinea pig atrium; negative logarithm of molar concentration; heart beats, histamine dose-response; read-out: Antagonistic Action against Histamine H2-Receptor (pA2) Determined by Using Atrium isolated from Guinea Pig (converted). The protocol:
A male Hartley guinea pig having a body weight of about 400 g was killed by cervical dislocation, and the artrium thereof was isolated and was suspended in an organ bath containing 50 ml of a modified Ringer solution and subjected to a tension of 1 g. The number of heart beats under such condition was recorded using a polygraph.
Initially, from 1×10^-7 mol to 3×10^-4 mol of histamine was allowed to act accumulatively to depict the curve of the dosage-reaction relationship. Likewise, the curve of the dosage of histamine-reaction relationship was depicted in the presence of 5×10^-7 mol to 1×10^-6 mol of the test sample which was injected 3 minutes before. The negative logarithm (pA2) of the molar concentration of the test sample required for moving the curve obtained by single administration of histamine parallel to the right side by a two-times concentration was calculated.

Experiment [2] concerns Gastric acid secretion induced by histamine. In words: Inhibitory effect of intraduodenally administered compounds on gastric acid secretion induced by histamine in rat. It is filed as in vivo, rat (male Wistar). The conditions noted are these: intraduodenal, rat; for ED50: 0.5 h, 30 minutes before SC histamine, read-out: Median effective dose (ED50), Gastric Acid Secretion; for Efficacy Ratio relative to Cimetidine (Cimetidine = 1): from ED50; for ED50 value: times as effective as Cimetidine (activity ratio): text discussing Table 2.

What is called ED50 is the dose at which the effect has come halfway, by size or by number of responders.

T1 sequence (P47747 whole entry): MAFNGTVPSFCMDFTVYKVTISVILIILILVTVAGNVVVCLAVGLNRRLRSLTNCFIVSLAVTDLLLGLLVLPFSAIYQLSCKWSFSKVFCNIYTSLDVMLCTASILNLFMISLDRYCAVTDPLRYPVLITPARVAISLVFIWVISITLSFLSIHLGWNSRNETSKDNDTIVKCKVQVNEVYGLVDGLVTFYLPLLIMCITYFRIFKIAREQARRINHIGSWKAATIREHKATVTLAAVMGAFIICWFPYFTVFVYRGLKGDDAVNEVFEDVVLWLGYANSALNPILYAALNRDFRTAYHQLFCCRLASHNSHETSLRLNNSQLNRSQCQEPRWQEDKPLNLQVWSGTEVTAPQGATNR

In the case of `CC1CCCCN1Cc1cccc(OC/C=C\CNc2c(N)c(=O)c2=O)c1` (stereo not drawn) [Ex. 33, 1-amino-2-[4-{3-<1-(2-methylpiperidino)-methyl>phenoxy}-cis-2-butenylamino]-1-cyclobutene-3,4-dione], the inhibition in vivo at 0.2 mg/kg in experiment [1] stood at 70%. The Kb on Histamine H2-Receptor was 0.166 µM. Also, in experiment [2], the ED50 came to 0.4 mg/kg and the “Efficacy Ratio relative to Cimetidine (Cimetidine = 1)” value (“Efficacy Ratio relative to Cimetidine” for short) came out at 18.0.
Take `O=c1c(NC/C=C\COc2cccc(CN3CCCCC3)c2)c(NCc2ccncc2)c1=O` [Ex. 38]: in experiment [1], the inhibition in vivo at 0.2 mg/kg was found to be 98%. On Histamine H2-Receptor, the Kb is 0.589 µM. Moreover, in experiment [2], the ED50 is 0.04 mg/kg and the “Efficacy Ratio relative to Cimetidine” value is 180.0.
Turning to `CNC1=NS(=O)(=O)N=C1NC/C=C\COc1cccc(CN2CCCCC2)c1` [Reference Ex. 2, 3-methylamino-4-[4-<3-(1-piperidinomethyl)phenoxy>-cis-2-butenylamino]-1,2,5-thiadiazole-1,1-dioxide, reference compound], in experiment [2], the ED50 is 0.44 mg/kg, the “Efficacy Ratio relative to Cimetidine” value was 16.4 and the “ED50 value: times as effective as Cimetidine (activity ratio)” value (from here on “ED50 value: times … (activity ratio)”) was 16 times.
Turning to `CNc1n[s+]([O-])nc1NC/C=C\COc1cccc(CN(C)C)c1` (stereo not drawn) [Ex. 22, 3-<4-(3-dimethylaminomethylphenoxy)-cis-2-butenylamino>-4-methylamino-1,2,5-thiadiazole-1-oxide], the inhibition in vivo at 0.2 mg/kg in experiment [1] came to 88%. For the same compound, the Kb at Histamine H2-Receptor is 0.316 µM. In addition, in experiment [2], the ED50 worked out at 0.62 mg/kg and the “Efficacy Ratio relative to Cimetidine” value is on record as 11.6.
The corresponding values for `Nc1n[nH]c(=O)nc1NC/C=C/COc1cccc(CN2CCCCC2)c1` [Ex. 11, 6-amino-5-[4-<3-(1-piperidinomethyl)phenoxy>-trans-2-butenylamino]-1,2,4-triazin-3-one] are 88%, 0.661 µM, 0.44 mg/kg and 16.4.
With `CNc1c(NC/C=C/COc2cccc(CN3CCCCC3)c2)c(=O)c1=O` [Ex. 7, 1-methylamino-2-[4-<3-(1-piperidinomethyl)phenoxy>-trans-2-butenylamino]-1-cyclobuten-3,4-dione], the inhibition in vivo at 0.2 mg/kg in experiment [1] came to 28%. The Kb at Histamine H2-Receptor was 0.513 µM.
Regarding `C#CCNc1c(NC/C=C\COc2cccc(CN3CCCCC3)c2)c(=O)c1=O` [Ex. 4, 1-(2-propagylamino)-2-[4-<3-(1-piperidinomethyl)phenoxy>-cis-2-butenylamino]-1-cyclobuten-3,4-dione], the inhibition in vivo at 0.2 mg/kg in experiment [1] was 66%. Also, the Kb on Histamine H2-Receptor was 0.776 µM.
Regarding `Nc1n[s+]([O-])nc1NC/C=C\COc1cccc(CN2CCCCC2)c1` (stereo not shown) [Ex. 15], the inhibition in vivo at 0.5 mg/kg in experiment [1] (0.5 mg/kg SC) was 98%. On Histamine H2-Receptor, the Kb is 0.437 µM. In addition, in experiment [2], the ED50 worked out at 0.066 mg/kg, the “Efficacy Ratio relative to Cimetidine” value was 109.1 and the “ED50 value: times … (activity ratio)” value was approximately 110 times.
Turning to `Nc1c(NC/C=C/COc2cccc(CN3CCCCC3)c2)c(=O)c1=O` [Ex. 6, 1-amino-2-[4-<3-(1-piperidinomethyl)phenoxy>-trans-2-butenylamino]-1-cyclobuten-3,4-dione], the inhibition in vivo at 0.2 mg/kg in experiment [1] amounted to 25%. The Kb at Histamine H2-Receptor was 0.178 µM.
In the case of `Nc1n[s+]([O-])nc1NC/C=C\COc1cccc(CN2CCCC2)c1` (stereo not drawn) [Ex. 17, 3-amino-4-[4-<3-(1-pyrrolidinomethyl)phenoxy>-cis-2-butenylamino]-1,2,5-thiadiazole-1-oxide], the inhibition in vivo at 0.2 mg/kg in experiment [1] came to 86%. Also, the Kb at Histamine H2-Receptor is 0.0977 µM. Besides, in experiment [2], the ED50 amounted to 0.82 mg/kg and the “Efficacy Ratio relative to Cimetidine” value was 8.8.
With `CC(C)Nc1n[s+]([O-])nc1NC/C=C\COc1cccc(CN2CCCCC2)c1` (stereo not drawn) [Ex. 19, 3-isopropylamino-4-[4-<3-(1-piperidinomethyl)phenoxy>-cis-2-butenylamino]-1,2,5-thiadiazole-1-oxide], the inhibition in vivo at 0.2 mg/kg in experiment [1] amounted to 82%. The Kb on Histamine H2-Receptor was 2.4 µM. In addition, in experiment [2], the ED50 worked out at 0.88 mg/kg and the “Efficacy Ratio relative to Cimetidine” value is listed as 8.2.
Take `CCCNc1n[s+]([O-])nc1NC/C=C\COc1cccc(CN2CCCCC2)c1` (stereo not drawn) [Ex. 20, 3-n-propylamino-4-[4-<3-(1-piperidinomethyl)phenoxy>-cis-2-butenylamino]-1,2,5-thiadiazol-1-oxide]: in experiment [1], the inhibition in vivo at 0.2 mg/kg turned out to be 88%. On Histamine H2-Receptor, the Kb was 0.389 µM. Further, in experiment [2], the ED50 came out at 0.58 mg/kg and the “Efficacy Ratio relative to Cimetidine” value was found to be 9.0.
With `Nc1nnc(NC/C=C\COc2cccc(CN3CCCC3)c2)s1` [Ex. 29, 2-amino-5-[4-<3-(1-pyrrolidinomethyl)-phenoxy>-cis-2-butenylamino]-1,3,4-thadiazole], the inhibition in vivo at 0.2 mg/kg in experiment [1] is 36%. In addition, the Kb on Histamine H2-Receptor was 0.316 µM.
On the same counts, the results for `CNc1nn(C)c(=O)nc1NC/C=C/COc1cccc(CN2CCCCC2)c1` [Ex. 12, 2-methyl-6-methylamino-5-[4-<3-(1-piperidinomethyl)phenoxy>-trans-2-butenylamino]-1,2,4-triazin-3-one] are 44% and 1.51 µM.
Regarding `CC1CCN(Cc2cccc(OC/C=C\CNc3c(N)c(=O)c3=O)c2)CC1` [Ex. 35, 1-amino-2-[4-{3-<1-(4-methylpiperidino)methyl>phenoxy}-cis-2-butenylamino]-1-cyclobutene-3,4-dione], the inhibition in vivo at 0.2 mg/kg in experiment [1] was found to be 98%. Further, at Histamine H2-Receptor, the Kb was 0.263 µM. In addition, in experiment [2], the ED50 was found to be 0.38 mg/kg and the “Efficacy Ratio relative to Cimetidine” value worked out at 18.9.
Take `CNc1nnc(NC/C=C/COc2cccc(CN3CCCCC3)c2)s1` [Ex. 26, 2-methylamino-5-[4-<3-(1-piperidinomethyl)-phenoxy>-trans-2-butenylamino]-1,3,4-thiadiazole]: the inhibition in vivo at 0.2 mg/kg in experiment [1] is 45%. For the same compound, the Kb on Histamine H2-Receptor is 9.55 µM.
In the case of `CNc1nnc(NC/C=C\COc2cccc(CN3CCCC3)c2)s1` [Ex. 30, 2-methylamino-5-[4-<3-(1-pyrrolidinomethyl)-phenoxy>-cis-2-butenylamino]-1,3,4-thiadiazole], in experiment [1], the inhibition in vivo at 0.2 mg/kg was determined as 17%. Also, on Histamine H2-Receptor, the Kb was 0.55 µM.
Consider `NC1=NS(=O)(=O)N=C1NC/C=C\COc1cccc(CN2CCCCC2)c1` [Reference Ex. 1, 3-amino-4-[4-<3-(1-piperidinomethyl)phenoxy>-cis-2-butenylamino]-1,2,5-thiadiazole-1,1-dioxide, reference compound], for which, in experiment [2], the ED50 came out at 0.2 mg/kg, the “Efficacy Ratio relative to Cimetidine” value is listed as 36.0 and the “ED50 value: times … (activity ratio)” value was determined as 36 times.
Turning to `Nc1nnc(NC/C=C/COc2cccc(CN3CCCCC3)c2)s1` [Ex. 25, 2-amino-5-[4-<3-(1-piperidinomethyl)phenoxy>-trans-2-butenylamino]-1,3,4-thiadiazole], the inhibition in vivo at 0.2 mg/kg in experiment [1] was 77%. Also, at Histamine H2-Receptor, the Kb is 0.204 µM.
Turning to `Cn1c(NC/C=C/COc2cccc(CN3CCCCC3)c2)cc(N)nc1=O` [Ex. 14, 1-methyl-4-amino-6-[4-<3-(1-piperidinomethyl)phenoxy>-trans-2-butenylamino]-(1H)-pyrimidin-2-one], the inhibition in vivo at 0.2 mg/kg in experiment [1] is -9%. In addition, the Kb on Histamine H2-Receptor was 7.08 µM.
